In ChEMBL document CHEMBL1147993, “Inhibitory effect of obovatal on the migration and invasion of HT1080 cells via the inhibition of MMP-2” (Bioorg Med Chem, 2007):
The source made the active and inactive calls. No cut-off for these calls is given here.

What was measured:
[1] = target: T1, 72 kDa type IV collagenase (Homo sapiens, UniProt P08253); assay: Inhibition of MMP2 in HT1080 cells at 15 uM by gelatin zymography assay; type: cell-based; details: HT-1080
Target sequence in this assay (P08253 110-660 limits assumed): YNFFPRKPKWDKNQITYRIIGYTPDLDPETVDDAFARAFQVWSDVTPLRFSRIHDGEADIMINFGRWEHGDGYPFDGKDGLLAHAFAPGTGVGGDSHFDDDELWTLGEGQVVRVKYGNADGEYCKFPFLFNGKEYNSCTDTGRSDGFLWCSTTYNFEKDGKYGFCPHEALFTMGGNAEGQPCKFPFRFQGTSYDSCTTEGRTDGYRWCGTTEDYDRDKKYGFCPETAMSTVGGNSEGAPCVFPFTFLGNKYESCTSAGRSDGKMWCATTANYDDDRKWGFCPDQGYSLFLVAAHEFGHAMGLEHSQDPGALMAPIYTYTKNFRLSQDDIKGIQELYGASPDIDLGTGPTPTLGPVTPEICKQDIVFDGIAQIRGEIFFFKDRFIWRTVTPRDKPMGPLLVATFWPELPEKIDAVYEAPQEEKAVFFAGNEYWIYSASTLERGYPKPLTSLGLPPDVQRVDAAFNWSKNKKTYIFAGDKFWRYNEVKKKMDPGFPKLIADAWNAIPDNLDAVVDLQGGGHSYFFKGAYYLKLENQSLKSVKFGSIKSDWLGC

HT-1080 [2] = assay: Inhibition of invasion of HT1080 cells at 20 uM after 24 hrs by Matrigel invasion assay relative to control; type: functional; details: Homo sapiens, HT-1080, 24 h
HCT-116 = assay: Growth inhibition of HCT116 cells up to 50 uM after 48 hrs by WST1 reduction assay; type: functional, cell-based; details: Homo sapiens
HT-1080 [3] = assay: Reduction of MMP2 protein expression in HT1080 cells at 20 uM ny Western blot; type: functional, Homo sapiens; set-up: scale not given: the % may be the effect or the level left
HT-1080 [4] = assay: Inhibition of migration of HT1080 cells at 20 uM by wound healing assay; type: functional, cell-based; details: Homo sapiens
HFF = assay: Effect on growth of HFF cells after 48 hrs by WST1 reduction assay; type: cell-based; details: human
[5] = target: T1, 72 kDa type IV collagenase; assay: Inhibition of MMP2 expressed in insect cells
Target sequence in this assay (P08253 whole entry): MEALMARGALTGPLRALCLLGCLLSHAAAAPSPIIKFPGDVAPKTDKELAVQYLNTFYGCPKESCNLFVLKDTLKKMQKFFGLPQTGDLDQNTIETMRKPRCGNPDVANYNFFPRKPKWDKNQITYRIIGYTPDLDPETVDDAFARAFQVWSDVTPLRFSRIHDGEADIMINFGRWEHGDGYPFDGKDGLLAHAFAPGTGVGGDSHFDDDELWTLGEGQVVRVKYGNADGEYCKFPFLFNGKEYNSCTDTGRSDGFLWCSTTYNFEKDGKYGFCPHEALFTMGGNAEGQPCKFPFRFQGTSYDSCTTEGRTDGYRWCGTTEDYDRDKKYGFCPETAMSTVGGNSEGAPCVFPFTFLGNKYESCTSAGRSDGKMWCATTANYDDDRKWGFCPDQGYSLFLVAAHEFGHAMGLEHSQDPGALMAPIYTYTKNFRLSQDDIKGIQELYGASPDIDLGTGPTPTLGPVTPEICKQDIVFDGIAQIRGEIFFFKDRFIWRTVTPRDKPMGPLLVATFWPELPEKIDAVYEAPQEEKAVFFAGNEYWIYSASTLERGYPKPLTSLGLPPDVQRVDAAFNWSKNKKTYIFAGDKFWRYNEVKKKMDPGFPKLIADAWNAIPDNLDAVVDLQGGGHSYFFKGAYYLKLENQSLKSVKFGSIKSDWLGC

HT-1080 [6] = assay: Reduction of MMP2 mRNA expression in HT1080 cells at 20 uM by RT-PCR; type: functional, Homo sapiens; set-up: scale not given: the % may be the effect or the level left

Activity [1]: Active
IC50 [5]: 800 nM
Compound: C=CCc1ccc(Oc2cc(/C=C/C=O)cc(O)c2O)cc1 [OBOVATAL]
inhibition at 20 µM (HT-1080 [2]): 70%
Activity (HCT-116): Active
Activity (HT-1080 [3]): 70%
Activity (HT-1080 [4]): Active
Activity (HFF): Non-toxic
Activity (HT-1080 [6]): 70%
